# Reference: publication PMC5438973 (Frontiers in Psychiatry, 2017)
# Assays:
# [1] = target: T1, h5-HT1D (Homo sapiens, UniProt P28221); assay: Radioligand binding, human cloned h5-HT1D; conditions: agonist radioligand, read-out: Affinity, Mean
# T1 construct: expressed in transfected cells
# Procedure: (§1) Binding affinities at the serotonin receptors were determined by standard radioligand-binding methods using human cloned receptors as reported in the literature ([14], [15]).
# [2] = target: T2, h5-HT6 (Homo sapiens, UniProt P50406); assay: Radioligand binding, human cloned h5-HT6; conditions: agonist radioligand, read-out: Affinity, Mean
# T2 construct: expressed in transfected cells
# T2 sequence (P50406 whole entry): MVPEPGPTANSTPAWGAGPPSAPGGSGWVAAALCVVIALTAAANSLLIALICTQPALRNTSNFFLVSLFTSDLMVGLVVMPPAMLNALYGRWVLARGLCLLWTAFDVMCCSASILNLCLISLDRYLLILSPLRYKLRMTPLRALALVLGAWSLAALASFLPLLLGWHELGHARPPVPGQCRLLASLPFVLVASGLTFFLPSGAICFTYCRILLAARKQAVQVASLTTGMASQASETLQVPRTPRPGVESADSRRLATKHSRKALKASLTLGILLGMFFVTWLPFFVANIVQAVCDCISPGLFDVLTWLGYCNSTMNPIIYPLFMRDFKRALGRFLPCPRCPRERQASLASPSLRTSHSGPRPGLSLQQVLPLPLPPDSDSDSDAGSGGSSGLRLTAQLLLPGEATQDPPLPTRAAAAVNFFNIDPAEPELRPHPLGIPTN
# Procedure: as §1
# [3] = target: T3, h5-HT2A (Homo sapiens, UniProt P28223); assay: GTP-γ-[35S] functional assay (SPA), AV12 cells; assay type: biochemical
# T3 construct: expressed in transfected cells; host or cells: AV12 cells
# T3 sequence (P28223 whole entry): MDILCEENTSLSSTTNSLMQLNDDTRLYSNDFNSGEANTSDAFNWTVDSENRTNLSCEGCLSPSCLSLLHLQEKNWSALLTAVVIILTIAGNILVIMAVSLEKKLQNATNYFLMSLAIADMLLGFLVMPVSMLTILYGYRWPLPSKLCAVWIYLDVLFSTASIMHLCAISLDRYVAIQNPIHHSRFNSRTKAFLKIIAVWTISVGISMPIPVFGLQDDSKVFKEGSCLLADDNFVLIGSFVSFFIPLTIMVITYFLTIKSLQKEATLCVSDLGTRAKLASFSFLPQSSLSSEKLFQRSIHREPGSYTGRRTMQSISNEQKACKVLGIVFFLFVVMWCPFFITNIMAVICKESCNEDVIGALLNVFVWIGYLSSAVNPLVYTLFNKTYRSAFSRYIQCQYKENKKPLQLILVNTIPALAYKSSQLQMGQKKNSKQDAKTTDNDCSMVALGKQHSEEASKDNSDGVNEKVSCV
# From the text: (§2) 5-HT2 receptors are functionally coupled to specific G-proteins. Agonist activation of 5-HT2 G-protein coupled receptors results in the release of GDP from alpha-subunit (G alpha q or G alpha i) of the G-protein and the subsequent binding of GTP. The binding of the stable analog GTP-g-[^35S] is an indicator of receptor activation. Human cloned 5-HT2A, −2B, and −2C receptors were expressed in AV12 cells. GTP-g-[^35S] nucleotide exchange scintillation proximity assay (SPA) was used to measure binding as previously described ([14]).
# [4] = target: T4, h5-HT2B (Homo sapiens, UniProt P41595); assay: GTP-γ-[35S] functional assay (SPA), AV12 cells; assay type: biochemical
# T4 construct: expressed in transfected cells; host or cells: AV12 cells
# T4 sequence (P41595 whole entry): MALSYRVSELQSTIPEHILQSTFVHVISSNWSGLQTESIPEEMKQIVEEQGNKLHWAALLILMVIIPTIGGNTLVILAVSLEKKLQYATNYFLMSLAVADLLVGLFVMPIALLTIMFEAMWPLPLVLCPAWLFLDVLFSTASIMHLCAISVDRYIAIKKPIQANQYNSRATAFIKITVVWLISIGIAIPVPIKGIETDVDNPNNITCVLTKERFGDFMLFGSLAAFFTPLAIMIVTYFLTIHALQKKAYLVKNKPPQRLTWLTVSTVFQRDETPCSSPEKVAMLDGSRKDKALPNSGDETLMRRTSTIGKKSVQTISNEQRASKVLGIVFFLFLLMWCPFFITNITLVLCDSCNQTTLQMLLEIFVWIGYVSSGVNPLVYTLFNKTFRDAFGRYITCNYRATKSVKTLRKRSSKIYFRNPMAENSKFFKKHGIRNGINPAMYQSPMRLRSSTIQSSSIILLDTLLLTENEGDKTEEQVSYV
# From the text: as §2
# [5] = target: T5, h5-HT2C (Homo sapiens, UniProt P28335); assay: GTP-γ-[35S] functional assay (SPA), AV12 cells; assay type: biochemical
# T5 construct: expressed in transfected cells; host or cells: AV12 cells
# T5 sequence (P28335 33-458): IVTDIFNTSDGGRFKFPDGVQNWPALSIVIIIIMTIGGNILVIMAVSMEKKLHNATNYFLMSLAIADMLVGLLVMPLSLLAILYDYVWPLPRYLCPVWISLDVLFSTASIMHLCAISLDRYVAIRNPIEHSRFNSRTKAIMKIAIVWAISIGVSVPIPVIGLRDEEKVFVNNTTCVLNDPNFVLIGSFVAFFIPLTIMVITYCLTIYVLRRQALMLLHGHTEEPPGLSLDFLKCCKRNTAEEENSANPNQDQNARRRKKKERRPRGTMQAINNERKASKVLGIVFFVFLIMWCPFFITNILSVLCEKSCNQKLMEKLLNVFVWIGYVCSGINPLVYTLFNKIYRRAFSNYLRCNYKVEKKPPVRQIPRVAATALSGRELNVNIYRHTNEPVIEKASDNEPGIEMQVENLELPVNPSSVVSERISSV
# From the text: as §2
# [6] = test system: L-Verapamil site; assay: CEREP broad receptor screening panel; assay type: binding; set-up: dose or concentration left out as unconfirmed; conditions: CPD 1 (table title), duplicate
# Procedure: (§3) Additional selectivity assessment of CPD 1 was performed at CEREP. Methods are available for the multiple assays utilized at http://www.cerep.fr/cerep/users/pages/catalog/assay/catalog.asp. The specific ligand binding to the receptors is defined as the difference between the total binding and the non-specific binding determined in the presence of an excess of unlabeled ligand.
# [7] = test system: α1; assay: CEREP broad receptor screening panel; assay type: binding; set-up: dose or concentration left out as unconfirmed; conditions: CPD 1 (table title), duplicate
# Procedure: as §3
# [8] = target: T6, D1 (Homo sapiens, UniProt P21728); assay: CEREP broad receptor screening panel; assay type: binding; conditions: CPD 1 10 µM (table title), duplicate
# T6 construct: CEREP
# T6 sequence (P21728 whole entry): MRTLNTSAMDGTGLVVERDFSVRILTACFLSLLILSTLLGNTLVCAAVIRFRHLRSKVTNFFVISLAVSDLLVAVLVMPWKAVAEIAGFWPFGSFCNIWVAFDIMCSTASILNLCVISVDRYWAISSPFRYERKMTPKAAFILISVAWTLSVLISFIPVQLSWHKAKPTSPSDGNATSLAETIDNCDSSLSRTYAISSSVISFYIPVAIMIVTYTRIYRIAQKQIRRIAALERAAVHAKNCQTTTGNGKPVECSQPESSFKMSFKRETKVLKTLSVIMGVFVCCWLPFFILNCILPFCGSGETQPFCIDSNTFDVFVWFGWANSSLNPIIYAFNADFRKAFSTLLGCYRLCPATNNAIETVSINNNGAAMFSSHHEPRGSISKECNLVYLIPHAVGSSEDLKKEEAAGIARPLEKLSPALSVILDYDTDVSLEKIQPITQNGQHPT
# Procedure: as §3
# [9] = target: T7, D5 (Homo sapiens, UniProt P21918); assay: CEREP broad receptor screening panel; assay type: binding; conditions: CPD 1 10 µM (table title), duplicate
# T7 construct: CEREP
# T7 sequence (P21918 whole entry): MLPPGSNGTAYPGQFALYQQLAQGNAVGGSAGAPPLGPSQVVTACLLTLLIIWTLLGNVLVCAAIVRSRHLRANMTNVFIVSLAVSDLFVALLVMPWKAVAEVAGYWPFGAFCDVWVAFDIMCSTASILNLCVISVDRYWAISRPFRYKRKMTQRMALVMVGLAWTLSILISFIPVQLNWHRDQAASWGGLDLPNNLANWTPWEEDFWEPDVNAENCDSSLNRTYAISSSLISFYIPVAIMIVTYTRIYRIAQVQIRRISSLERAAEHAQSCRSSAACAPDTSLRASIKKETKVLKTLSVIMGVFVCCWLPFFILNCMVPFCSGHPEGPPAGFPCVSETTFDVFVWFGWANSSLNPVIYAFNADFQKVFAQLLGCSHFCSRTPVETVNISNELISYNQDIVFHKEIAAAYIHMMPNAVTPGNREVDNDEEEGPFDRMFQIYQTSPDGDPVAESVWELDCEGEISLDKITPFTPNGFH
# Procedure: as §3
# [10] = target: T8, H1 (Homo sapiens, UniProt P35367); assay: CEREP broad receptor screening panel; assay type: binding; conditions: CPD 1 10 µM (table title), duplicate
# T8 construct: CEREP
# T8 sequence (P35367 whole entry): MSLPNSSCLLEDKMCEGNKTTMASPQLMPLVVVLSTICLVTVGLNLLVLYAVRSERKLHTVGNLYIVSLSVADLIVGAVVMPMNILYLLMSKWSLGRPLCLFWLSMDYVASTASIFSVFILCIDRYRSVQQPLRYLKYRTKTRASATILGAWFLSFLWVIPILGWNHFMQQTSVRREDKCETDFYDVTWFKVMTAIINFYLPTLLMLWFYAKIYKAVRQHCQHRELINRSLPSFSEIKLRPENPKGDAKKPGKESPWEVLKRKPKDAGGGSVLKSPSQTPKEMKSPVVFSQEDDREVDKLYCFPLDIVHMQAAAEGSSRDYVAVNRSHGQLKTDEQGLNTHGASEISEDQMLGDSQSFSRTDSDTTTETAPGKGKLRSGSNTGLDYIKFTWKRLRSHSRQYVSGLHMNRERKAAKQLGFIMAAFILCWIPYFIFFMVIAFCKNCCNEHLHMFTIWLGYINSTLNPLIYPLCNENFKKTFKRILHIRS
# Procedure: as §3
# [11] = target: T9, H2 (Homo sapiens, UniProt P25021); assay: CEREP broad receptor screening panel; assay type: binding; conditions: CPD 1 10 µM (table title), duplicate
# T9 construct: CEREP
# T9 sequence (P25021 whole entry): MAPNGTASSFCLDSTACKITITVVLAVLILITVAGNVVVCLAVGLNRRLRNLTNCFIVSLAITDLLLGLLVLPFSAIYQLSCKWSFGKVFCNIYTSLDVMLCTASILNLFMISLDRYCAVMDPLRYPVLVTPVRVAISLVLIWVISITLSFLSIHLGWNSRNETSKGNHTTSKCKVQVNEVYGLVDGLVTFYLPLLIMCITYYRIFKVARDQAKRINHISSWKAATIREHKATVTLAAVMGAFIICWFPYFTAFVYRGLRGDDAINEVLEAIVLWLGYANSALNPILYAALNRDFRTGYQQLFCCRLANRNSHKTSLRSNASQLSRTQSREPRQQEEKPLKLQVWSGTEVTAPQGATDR
# Procedure: as §3
# [12] = target: T10, M1 (Homo sapiens, UniProt P11229); assay: CEREP broad receptor screening panel; assay type: binding; conditions: CPD 1 10 µM (table title), duplicate
# T10 construct: CEREP
# T10 sequence (P11229 whole entry): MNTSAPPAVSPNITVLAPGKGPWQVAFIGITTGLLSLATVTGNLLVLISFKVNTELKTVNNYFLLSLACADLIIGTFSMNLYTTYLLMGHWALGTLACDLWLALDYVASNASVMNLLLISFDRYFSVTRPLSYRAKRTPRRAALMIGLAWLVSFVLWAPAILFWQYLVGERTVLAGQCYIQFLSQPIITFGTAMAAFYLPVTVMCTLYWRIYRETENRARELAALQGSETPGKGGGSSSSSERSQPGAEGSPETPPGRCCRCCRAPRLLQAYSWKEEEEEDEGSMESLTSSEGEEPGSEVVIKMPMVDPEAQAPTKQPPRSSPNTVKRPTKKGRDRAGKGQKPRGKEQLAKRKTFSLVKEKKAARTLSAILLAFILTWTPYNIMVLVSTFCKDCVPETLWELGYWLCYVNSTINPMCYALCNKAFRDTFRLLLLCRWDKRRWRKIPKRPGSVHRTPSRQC
# Procedure: as §3
# [13] = test system: Na+ Channel; assay: CEREP broad receptor screening panel; assay type: binding; conditions: CPD 1 10 mM (table title), duplicate
# Procedure: as §3
# [14] = target: T11, β2 (Homo sapiens, UniProt P07550); assay: CEREP broad receptor screening panel; assay type: binding; conditions: CPD 1 10 µM (table title), duplicate
# T11 construct: CEREP
# T11 sequence (P07550 whole entry): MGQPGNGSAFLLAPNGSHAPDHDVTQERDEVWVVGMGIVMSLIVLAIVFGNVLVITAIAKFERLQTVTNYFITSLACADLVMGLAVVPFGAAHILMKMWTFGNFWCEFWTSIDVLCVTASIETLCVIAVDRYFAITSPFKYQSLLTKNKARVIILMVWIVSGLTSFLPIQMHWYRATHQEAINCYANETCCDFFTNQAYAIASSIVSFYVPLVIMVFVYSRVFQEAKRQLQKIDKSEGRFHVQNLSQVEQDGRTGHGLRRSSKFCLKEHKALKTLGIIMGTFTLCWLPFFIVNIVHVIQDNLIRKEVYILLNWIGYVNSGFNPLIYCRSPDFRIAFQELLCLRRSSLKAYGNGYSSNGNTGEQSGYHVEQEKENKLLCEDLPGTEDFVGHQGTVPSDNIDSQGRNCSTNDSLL
# Procedure: as §3
# [15] = test system: σ; assay: CEREP broad receptor screening panel; assay type: binding; conditions: CPD 1 10 mM (table title), duplicate
# Procedure: as §3
# [16] = test system: Male, Wistar rats; assay: Schedule-induced polydipsia; assay type: in vivo, rat; conditions: for Decrease of excessive water consumption: sc
# From the text: Rats were used in these experiments as they have been utilized for such studies in the past with great success in generating significant polydipsia ([16]). Male, Wistar rats were singly housed, and maintained at approximately 85% of their free-feeding weights with free access to water. Twelve adult male, Wistar rats (Harlan Industries, Indianapolis, IN, USA) were used. They were allowed to acclimate to our vivarium for at least 3 days prior to testing. They were 2 months old at the start of the experiments that lasted approximately 6–8 months and were without explicit experimental experience prior to this study. The rats were singly housed, and maintained at approximately 86–91% of their free-feeding weights with post session supplemental feeding of Lab Diet #5001 for rodents (PMI Nutrition International Inc., St. Louis, MO, USA). Body weights were corrected for the normal growth curve of Wistar rats such that actual body weight of each rat increased over the experimental time frame. Water was available continuously in the individual home cages. Rats were inspected daily 7 days/week by experimenters and veterinary staff.
# The experiments were conducted using operant behavior test chambers ENV-007 (Med Associates Inc., Georgia, VT, USA), 30.5 cm × 24.1 cm × 29.2 cm. The test chambers were contained within light and sound attenuating shells. A food trough was mounted 2 cm off the grid floor on the centerline. Two response levers were centered 8 cm off the centerline and 7 cm off the grid floor. Three lights were located above each response lever at 15 cm off the grid floor. All events were controlled and lever-press data were recorded by a Compaq computer running MED-PC Version IV (Med Associates Inc., Georgia, VT, USA). The water bottle located within each chamber was weighed before and after experimental sessions.
# Experimental sessions lasted 90 min. Test compounds or drug vehicle were administered on Tuesdays and Fridays, given the stability of performance (within 15% variation of the individual animal). Non-injection, control performances were on Thursdays. […] Dose-effect curves and drug interaction data were created by repeated testing in groups of five to eight rats. Test compounds were administered as described in figure legends. The effects of the compound are expressed as a percent of control for each individual animal. Results were analyzed by ANOVA followed by Dunnett’s multiple comparison (p < 0.05).
# Thus, in keeping with the guidelines of animal care and use followed here, we utilized the minimum number of animals required for signal detection.
# [17] = test system: Male, Wistar rats; assay: Deprivation-induced drinking; assay type: in vivo, rat; conditions: 18 h water deprivation, 5.6 mg/kg
# Procedure: Male, Wistar rats (different from those rats used in the schedule-induced polydipsia studies) were used. They were 320 ± 15 g at the initiation of this study. Water was removed from their home cage for 18 h after which water bottles were presented to each rat in an individual housing cage in a quiet room for 60 min. The weight of the water bottle before and after the 60 min period was measured to the nearest 0.1 g. Six to eight rats were studied per dose. It is noted that this deprivation period is considered stressful. After the experiment, the animals were returned to their living cages with continuous access to food and water.
# [18] = test system: Male, NIH Swiss mice
# [19] = GTPgs functional assay, human recombinant cell line
# [20] = 10 mg/kg, five consecutive days
# [21] = 10 mg/kg, 5 days of consecutive dosing
# T1 sequence (P28221 whole entry): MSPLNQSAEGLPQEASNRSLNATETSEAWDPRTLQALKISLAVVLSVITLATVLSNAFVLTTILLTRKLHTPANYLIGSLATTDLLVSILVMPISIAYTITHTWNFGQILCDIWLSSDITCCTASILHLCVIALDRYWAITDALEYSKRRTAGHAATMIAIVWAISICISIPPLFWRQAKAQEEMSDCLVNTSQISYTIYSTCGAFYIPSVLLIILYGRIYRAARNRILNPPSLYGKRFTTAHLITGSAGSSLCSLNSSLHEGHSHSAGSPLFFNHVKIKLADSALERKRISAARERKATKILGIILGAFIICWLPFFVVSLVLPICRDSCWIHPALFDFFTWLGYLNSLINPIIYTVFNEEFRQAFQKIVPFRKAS
smiles,measurement,setting,value
"C[C@H]1CN(c2ccc(C(F)(F)F)c3ccoc23)CCN1 [CPD 1, (3S)-3-methyl-1-[4-(trifluoromethyl)-7-benzofuranyl]-piperazine]",Ki,[1],296 nM
same,Ki,[2],212 nM
same,Functional activity (kind of agonism),[3]; 5-HT2A,partial agonist
same,EC50,[3]; [19],269 ± 19 nM
same,Emax,[3]; [19],53 ± 2%
same,Functional activity (kind of agonism),[4]; 5-HT2B,partial agonist
same,EC50,[4]; [19],97 ± 23 nM
same,Emax,[4]; [19],51%
same,Functional activity (kind of agonism),[5]; 5-HT2C,full agonist
same,EC50,[5]; [19],8.1 ± 0.5 nM
same,Emax,[5]; [19],110 ± 1%
same,% Inhibition,[6],59%
same,% Inhibition,[7],82%
same,inhibition at 10 µM,[8],94%
same,inhibition at 10 µM,[9],69%
same,inhibition at 10 µM,[10],93%
same,inhibition at 10 µM,[11],70%
same,inhibition at 10 µM,[12],56%
same,% Inhibition,[13],101%
same,inhibition at 10 µM,[14],104%
same,% Inhibition,[15],100%
same,Attenuation (tolerance) of the effect over 5 days,[16]; [20],not a significant attenuation
same,Effect on excessive water consumption over 5 days of dosing,[16]; [20],significantly decreased
same,Decrease of excessive water consumption,"[16]; CPD 1 5.6 mg/kg sc with MDL100907 0.1 mg/kg, 30 min prior",65%
same,Decrease of excessive water consumption,"[16]; CPD 1 5.6 mg/kg, 20 min prior",64%
same,Dose at which statistically significant reduction of excessive drinking was detected,[16]; Dunnett p < 0.05,≥ 3 mg/kg
same,Effect on excessive drinking / amount of water consumed,"[16]; given alone, acute dosing",dose-dependently suppressed
same,Effect on number of responses emitted (lever pressing for food),"[16]; given alone, acute dosing",without affecting response output
same,Reduction of deprivation-induced drinking,[17],50%
same,Effect on marble-burying compared to vehicle over five consecutive days,[18]; [21],significantly decreased
same,Tolerance to suppressant effect on marble-burying with repeated dosing,[18]; [21],did not produce tolerance
same,"Marble-burying, minimal effective dose",[18]; 12/dose group,10 milligrams per kilogram
